Experimental data as given in US8435978B2, “Substituted sulfonamide compounds” (Gruenenthal GmbH, priority 2006, dated 2013).
Where a name gives a salt, the structure may show the parent alone.

Assays:
B1R receptor of the rat = molecular target: T1, B1R receptor of the rat (Rattus norvegicus, UniProt P97583); test: Functional study on the bradykinin receptor 1 (B1R), FLIPR Ca2+ assay, rB1R cells; assay type: cell-based; conditions: agonist Des-Arg9-bradykinin 100 nM, % inhibition compared with the maximum achievable inhibition; for inhibition at 10 µM: CHO-K1, test substance 10 μM, read-out: B1R Antagonism, rat [10 μM] % Inhibition
T1 construct: host or cells: CHO K1 cells (Chinese hamster ovary), stably transfected
T1 sequence (P97583 1-337): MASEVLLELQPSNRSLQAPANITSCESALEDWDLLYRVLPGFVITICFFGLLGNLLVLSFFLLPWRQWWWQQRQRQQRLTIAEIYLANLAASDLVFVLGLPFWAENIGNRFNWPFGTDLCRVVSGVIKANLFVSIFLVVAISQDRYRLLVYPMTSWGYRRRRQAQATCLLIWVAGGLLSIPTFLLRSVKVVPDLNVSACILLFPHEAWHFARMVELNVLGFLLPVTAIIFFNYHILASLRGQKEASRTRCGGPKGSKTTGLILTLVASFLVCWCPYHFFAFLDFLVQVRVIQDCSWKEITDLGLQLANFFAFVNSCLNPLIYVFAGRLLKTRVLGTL
In short: (§1)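 CHO K1 cells stably expressing human or rat B1R, Fluo-4-loaded; test compound 10 μM added first (activation % vs agonist), then after 10 min 0.5 nM Lys-Des-Arg9-bradykinin (human) or 100 nM Des-Arg9-bradykinin (rat). Ca2+ peak fluorescence by FLIPR; % inhibition relative to maximum achievable inhibition.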

human B1R receptor = molecular target: T2, human B1R receptor (Homo sapiens, UniProt P46663); test: Functional study on the bradykinin receptor 1 (B1R), FLIPR Ca2+ assay, hB1R cells; assay type: cell-based; conditions: agonist Lys-Des-Arg9-bradykinin 0.5 nM, % inhibition compared with the maximum achievable inhibition; for inhibition at 10 µM: CHO-K1, test substance 10 μM, read-out: B1R Antagonism, human [10 μM] % Inhibition
T2 construct: host or cells: CHO K1 cells (Chinese hamster ovary), stably transfected
T2 sequence (P46663 1-353): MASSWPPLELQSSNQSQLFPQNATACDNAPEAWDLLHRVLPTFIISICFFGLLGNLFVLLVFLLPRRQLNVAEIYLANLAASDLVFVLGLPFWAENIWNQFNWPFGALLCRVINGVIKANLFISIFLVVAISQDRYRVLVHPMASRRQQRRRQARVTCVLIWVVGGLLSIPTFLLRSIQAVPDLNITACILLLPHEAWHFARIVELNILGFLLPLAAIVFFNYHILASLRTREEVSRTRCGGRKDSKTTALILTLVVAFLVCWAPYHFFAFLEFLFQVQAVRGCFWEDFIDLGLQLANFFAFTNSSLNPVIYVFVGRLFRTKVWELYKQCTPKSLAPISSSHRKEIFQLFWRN
In short: as §1

inhibition at 10 µM (B1R receptor of the rat) [%]	inhibition at 10 µM (human B1R receptor) [%]	B1R Antagonism, rat [10 μM] % Inhibition (B1R receptor of the rat; test substance 10 μM, rB1R CHO K1 cells) [%]	B1R Antagonism, human [10 μM] % Inhibition (human B1R receptor; test substance 10 μM, hB1R CHO K1 cells) [%]	Compound
107	39.4			COc1cc(C)c(S(=O)(=O)N2CCCC2COCC(=O)NCc2ccc(N3CCOCC3)cc2)c(C)c1 (stereo not drawn) [Example 579, 2-((1-(4-methoxy-2,6-dimethylphenylsulfonyl)pyrrolidin-2-yl)methoxy)-N-(4-morpholinobenzyl)acetamide]
100	77.4			COc1ccc(S(=O)(=O)N2c3ccccc3CC2COCC(=O)N2CCC(CCN3CCCCC3)CC2)cc1 (stereo not drawn) [Example 547, 2-((1-(4-methoxyphenylsulfonyl)indolin-2-yl)methoxy)-1-(4-(2-(piperidin-1-yl)ethyl)piperidin-1-yl)ethanone]
102	36.1			COc1cc(C)c(S(=O)(=O)N2CCCCC2COCC(=O)NCc2cccc(N3CCOCC3)c2)c(C)c1 (stereo not drawn) [Example 437, 2-((1-(4-methoxy-2,6-dimethylphenylsulfonyl)piperidin-2-yl)methoxy)-N-(3-morpholinobenzyl)acetamide]
94.4	-4.95			COc1cc(C)c(S(=O)(=O)N2CCCCC2COCC(=O)NC(C)Cn2cccn2)c(C)c1 (stereo not drawn) [Example 426, N-(1-(1H-pyrazol-1-yl)propan-2-yl)-2-((1-(4-methoxy-2,6-dimethylphenylsulfonyl)piperidin-2-yl)methoxy)acetamide]
		103.41	65.25	1-(4-(3-chloro-5-(trifluoromethyl)pyridin-2-yl)piperazin-1-yl)-2-((1-(2,6-dichlorophenylsulfonyl)piperidin-2-yl)methoxy)ethanone [Example 485]
103	101			O=C(COCC1CCCCN1S(=O)(=O)c1c(Cl)cccc1Cl)N1CCN(Cc2ccccc2)CC1 (stereo not drawn) [Example 480, 1-(4-benzylpiperazin-1-yl)-2-((1-(2,6-dichlorophenylsulfonyl)piperidin-2-yl)methoxy)ethanone]
99	67.1			COc1cc(C)c(S(=O)(=O)N2CCCCC2COCC(=O)N2CCN(c3ncc(C(F)(F)F)cc3Cl)CC2)c(C)c1 (stereo not drawn) [Example 376, 1-(4-(3-chloro-5-(trifluoromethyl)pyridin-2-yl)piperazin-1-yl)-2-((1-(4-methoxy-2,6-dimethylphenylsulfonyl)piperidin-2-yl)methoxy)ethanone]
95.4	24.7			COc1ccc(S(=O)(=O)N2c3ccccc3CC2COCC(=O)N2CCN(CCn3c(C)ccc3C)CC2)cc1 (stereo not drawn) [Example 548, 1-(4-(2-(2,5-dimethyl-1H-pyrrol-1-yl)ethyl)piperazin-1-yl)-2-((1-(4-methoxyphenylsulfonyl)indolin-2-yl)methoxy)ethanone]

Second part, the compound before the results:

Compound	inhibition at 10 µM (B1R receptor of the rat) [%]	inhibition at 10 µM (human B1R receptor) [%]	B1R Antagonism, rat [10 μM] % Inhibition (B1R receptor of the rat; test substance 10 μM, rB1R CHO K1 cells) [%]	B1R Antagonism, human [10 μM] % Inhibition (human B1R receptor; test substance 10 μM, hB1R CHO K1 cells) [%]
O=C(COCC1CCCN1S(=O)(=O)c1c(Cl)cc(Cl)cc1Cl)N1CCC(N2CCCC2)CC1 (stereo not drawn) [Example 296, 1-(4-(pyrrolidin-1-yl)piperidin-1-yl)-2-((1-(2,4,6-trichlorophenylsulfonyl)pyrrolidin-2-yl)methoxy)ethanone]	99.3	106		
Cc1cc(C)c(S(=O)(=O)N2CCCCC2COCC(=O)N2CCN(C3CCN(C)CC3)CC2)c(C)c1 (stereo not drawn) [Example 107, 2-((1-(mesitylsulfonyl)piperidin-2-yl)methoxy)-1-(4-(1-methylpiperidin-4-yl)piperazin-1-yl)ethanone]	102	102		
COc1cccc(N2CCN(C(=O)COCC3CCCCN3S(=O)(=O)c3c(C)cc(C)cc3C)CC2)c1 (stereo not drawn) [Example 77, 1-[4-(3-methoxy-phenyl)-piperazin-1-yl]-2-[1-(2,4,6-trimethyl-phenylsulfonyl)-piperidin-2-ylmethoxy]-ethanone]	105	48		
COc1cc(C)c(S(=O)(=O)N2CCCCC2COCC(=O)N2CCC(Cc3cccnc3)C2)c(C)c1 (stereo not drawn) [Example 208, 2-((1-(4-methoxy-2,6-dimethylphenylsulfonyl)piperidin-2-yl)methoxy)-1-(3-(pyridin-3-ylmethyl)pyrrolidin-1-yl)ethanone]	101	105		
COc1cc(C)c(S(=O)(=O)N2CCCC[C@H]2COCC(=O)N2CCN(C3CCN(C)CC3)CC2)c(C)c1 [Example 167, (S)-2-((1-(4-methoxy-2,6-dimethylphenylsulfonyl)piperidin-2-yl)methoxy)-1-(4-(1-methylpiperidin-4-yl)piperazin-1-yl)ethanone]	101	102		
COc1cc(C)c(S(=O)(=O)N2CCCC2COCC(=O)N2CCN(C3CCN(C)CC3)CC2)c(C)c1 (stereo not drawn) [Example 192, 2-((1-(4-methoxy-2,6-dimethylphenylsulfonyl)pyrrolidin-2-yl)methoxy)-1-(4-(1-methylpiperidin-4-yl)piperazin-1-yl)ethanone]	100	106		
COc1cc(C)c(S(=O)(=O)N2CCCCC2COCC(=O)NCc2ccc(CN3CCCCC3)cc2)c(C)c1 (stereo not drawn) [Example 2, 2-[1-(4-methoxy-2,6-dimethyl-phenylsulfonyl)-piperidin-2-ylmethoxy]-N-(4-piperidin-1-ylmethyl-benzyl)-acetamide]	87.4	104		
COc1cc(C)c(S(=O)(=O)N2CCCC2COCC(=O)N2CCCC2c2ccccn2)c(C)c1 (stereo not drawn) [Example 271, 2-((1-(4-methoxy-2,6-dimethylphenylsulfonyl)pyrrolidin-2-yl)methoxy)-1-(2-(pyridin-2-yl)pyrrolidin-1-yl)ethanone]	85.9	59.1		
COc1cc(C)c(S(=O)(=O)N2CCCCC2COCC(=O)N(C)CCc2ccncc2)c(C)c1 (stereo not drawn) [Example 239, 2-((1-(4-methoxy-2,6-dimethylphenylsulfonyl)piperidin-2-yl)methoxy)-N-methyl-N-(2-(pyridin-4-yl)ethyl)acetamide]	99.7	94.7		
O=C(COCC1CCCN1S(=O)(=O)c1c(Cl)cc(Cl)cc1Cl)N(C1CC1)C1CCN(Cc2ccccc2)CC1 (stereo not drawn) [Example 334, N-(1-benzylpiperidin-4-yl)-N-cyclopropyl-2-((1-(2,4,6-trichlorophenylsulfonyl)pyrrolidin-2-yl)methoxy)acetamide]	101	107		
Cc1cccc(Cl)c1S(=O)(=O)N1CCC[C@H]1COCC(=O)N1CCN(CC2CCN(C)CC2)CC1 [Example 163, (S)-2-((1-(2-chloro-6-methylphenylsulfonyl)pyrrolidin-2-yl)methoxy)-1-(4-((1-methylpiperidin-4-yl)methyl)piperazin-1-yl)ethanone dihydrochloride]	101	95		
Cc1cc(C)c(S(=O)(=O)N2Cc3ccccc3CC2COCC(=O)N2CCC(N3CCN(C)CC3)CC2)c(C)c1 (stereo not drawn) [Example 292, 2-((2-(mesitylsulfonyl)-1,2,3,4-tetrahydroisoquinolin-3-yl)methoxy)-1-(4-(4-methylpiperazin-1-yl)piperidin-1-yl)ethanone]	99.2	106		
O=C(COCC1CCCN1S(=O)(=O)c1c(Cl)cc(Cl)cc1Cl)N1CCC(CCN2CCCCC2)CC1 (stereo not drawn) [Example 331, 1-(4-(2-(piperidin-1-yl)ethyl)piperidin-1-yl)-2-((1-(2,4,6-trichlorophenylsulfonyl)pyrrolidin-2-yl)methoxy)ethanone]	101	106		
COc1cc(C)c(S(=O)(=O)N2CCCCC2COCC(=O)NCCN2CCN(C)CC2)c(C)c1 (stereo not drawn) [Example 248, 2-((1-(4-methoxy-2,6-dimethylphenylsulfonyl)piperidin-2-yl)methoxy)-N-(2-(4-methylpiperazin-1-yl)ethyl)acetamide]	89.9	95.6		
COc1cc(C)c(S(=O)(=O)N2CCCC2COCC(=O)N2CCN(Cc3c(C)cc(C)cc3C)CC2)c(C)c1 (stereo not drawn) [Example 351, 2-((1-(4-methoxy-2,6-dimethylphenylsulfonyl)pyrrolidin-2-yl)methoxy)-1-(4-(2,4,6-trimethylbenzyl)piperazin-1-yl)ethanone]	104	44		
COc1cc(C)c(S(=O)(=O)N2CCC[C@@H]2COCC(=O)N2CCN(C3CCN(C)CC3)CC2)c(C)c1C [Example 140, (R)-2-((1-(4-methoxy-2,3,6-trimethylphenylsulfonyl)pyrrolidin-2-yl)methoxy)-1-(4-(1-methylpiperidin-4-yl)piperazin-1-yl)ethanone dihydrochloride]	80.7	100		
